“Also recorded” adds a separate entry of the source.
How the values were obtained:
LnCAP (prostate cancer) = experiment: Apoptosis analysis (Annexin V FITC, flow cytometry); type: cell-based, human; settings: 3 days
Procedure: Apoptosis was analyzed by using an Annexin V FITC Apoptosis Detection Kit (Biosource, Camarillo, Calif.), according to the manufacturer's protocol. After treatment with different small molecule compounds at various concentrations for about 3 days, cells were harvested by trypsinization, stained and immediately analyzed by flow cytometry (FACScan; Decton Dickinson, Franklin Lake, N.J.). Early apoptotic cells with exposed phosphatidylserine but intact cell membranes will bind to Annexin V-FITC, but not propidium iodide (PI). Cells in necrotic or late apoptotic stages will be labeled with both Annexin V-FITC and PI. “% apoptotic cells” or “% apoptosis” refers to the combined early and late apoptotic cells.
Flow cytometry was also used to examine apoptosis induced by molecule compounds FN1-5 and FN1-8 in LnCAP cells. […] For example, app.

[1] = system: human SOCS3 promoter in NSCLC cell line A549; experiment: SOCS3 promoter-luciferase reporter assay; type: cell-based; settings: A549, 30 μM, 18-24 hours
Procedure: One day before transfection, cells (1×10^5) were plated in 12-well plates with growth medium without antibiotics. When cells reached 80-90% of confluence they were co-transfected using 0.5 μg of each promoter construct in pGL3Basic vector and 0.025 μg pRL-TK Vector (Promega; Madison, Wis.) containing Renilla Luciferase as an internal control for the transformation efficiency. Lipofectamine 2000™ (Invitrogen Life Technologies) was used to mediate transfection for about 6 hours. Then the medium was replaced with fresh medium containing various small molecule compounds at a concentration of 30 μM, and the resulting cells were cultured for an additional 18-24 hours and subjected to luciferase assay. Briefly, cells were lysed in a lysis buffer and Firefly and Renilla Luciferase activities in cells of each well, were measured using Dual-Luciferase Assay System (Promega) and an illuminometer. The measured luciferase activities were normalized to pRL-TK Vector activity and were given relative to the basal activity of empty pGL3-Basic Vector, which was set to unity. The data shown represent mean values (±S.D.). All measurements were performed in triplicate and repeated in at least three independent experiments. The human Wnt-2 promoter-luciferase construct, the human SOCS3 promoter-Luciferase construct and the human Gremlin promoter-luciferase construct were cloned and characterized in the laboratory of Dr. Jablons at the University of California, San Francisco (San Francisco, Calif.; He et al., Biochem Biophy Res Comm, 2003; and unpublished data). The 6GLI-TKO-luciferase construct (containing 6 repeats of consensus GLI DNA binding sequence) was kindly provided by Dr. Matthias Hebrok's laboratory at the University of California, San Francisco (San Francisco, Calif.).
As a third specificity test for the small molecule compounds of the present invention, the ability of these compounds to regulate the expression of genes that are not down-stream targets of the Gli activation was analyzed. SOCS3, an inhibitor and down-stream target gene of JAK/STAT pathway was chosen for this experiment. Expression of SOCS3 is not under control of Gli and/or Wnt activation. Furthermore, no GLI and TCF binding sites were found in the human SOCS3 promoter cloned in the laboratory of Dr. Jablons (University of California, San Francisco; data not shown). Thus, SOCS3 promoter-luciferase reporter activity was measured after the treatment of the NSCLC cell line A549 with small molecule compounds FN1-5, FN1-7, FN1-8, and FN1-9U.

[2] = system: human renal cell carcinoma cell lines 786-O, Caki, and OMRC3; experiment: Cell survival assay (crystal violet); type: cell-based; settings: for cell killing: 50 μM
Procedure: (§1) Typically, the small molecule compounds of the present invention were dissolved in DMSO at a concentration of 30 mM. The small molecule compounds were then tested under cell culture conditions at different concentrations ranging from 0, 10, 30, 50, to 100 uM. To determine cell survival after treatment, the cells were incubated with the small molecule compounds in 6-well plates for about 3 days. After removal of the cell culture medium, 1-ml of 0.5% crystal violet solution (prepared in 20% ethanol and 20% methanol) was added to stain the cells for 5 min. Then the crystal violet solution was rinsed clean with tap water. Cell survival was estimated based on the density of crystal stained plates.
The cell-based cytotoxicity assay described herein was used to determine the effect of small molecule compounds FN1-5 and FN1-8 in the human renal cell carcinoma cell lines 786-O, Caki, and OMRC3. Viability of these cells was analyzed after treatment with 10, 30 and 50 μM FN1-5 or FN1-8.

[3] = system: primary cultured human mesothelioma cells; experiment: Cell survival assay (crystal violet); type: cell-based; settings: for cell killing effect: 50 and 100 μM, 3 days
Procedure: Fresh cancer tissue and adjacent normal tissue from patients undergoing curative primary resection of their tumors were collected at the time of surgery (IRB approval H8714-15319-040), and immediately snap-frozen in liquid nitrogen. These tissue samples were kept at −170° C. in a liquid nitrogen freezer until further use. Primary tissue cultures were prepared as follows: Fresh cancer tissue was obtained with consent from patients undergoing resection, cut into small pieces (1-2 mm in diameter), and then digested with Collagenase A (Roche Applied Science, Indianapolis, Ind.) at room temperature for 2 hours according to manufacture's protocol. Single cells from the digestion were spun down and the cell pellets were washed twice using RPMI 1640 supplemented with 10% fetal bovine serum, penicillin (100 IU/ml) and streptomycin (100 μg/ml). Then, the cells were resuspended in the same medium and cultured in 6-well plates at 37° C. in a humid incubator with 5% CO2 until they were ready for further treatments.
as §1
Next, the effect of different small molecule compounds on primary cultured human mesothelioma cells freshly made from tissue samples was examined. The primary cultures were plated in 6-well plates as described herein and incubated with 50 and 100 μM of each compound (FN1-5, FN1-7, FN1-8, and FN3-5; stocks were dissolved in DMSO at 30 mM) for 3 days. […] (FIG. 8).

[4] = system: Hedgehog (Hh) signaling pathway (Ptch1, Gli1) in NSCLC cell lines H460 and A549; experiment: Semi-quantitative RT-PCR of Hedgehog pathway genes; type: cell-based, human; settings: for expression of Hh pathway key components and direct target genes (Ptch1, Gli1): 30 μM, 2 days, data not shown
Procedure: Total RNA from cell lines or tissue samples was isolated using Qiagen RNeasy Mini Kit (Valencia, Calif.). RT-PCR was performed in GeneAmp PCR system 2700 (Applied Biosystems, Foster City, Calif.) using One-step RT-PCR Kit from Invitrogen Life Technologies (Carlsbad, Calif.). Primers for RT-PCR were obtained from Operon Technologies Inc. (Alameda, Calif.). Primer sequences for amplifying different genes in Hedgehog and Wnt signaling pathways are listed in the table below (Table 1; F, forward primer; R, reverse primer). The expected size of the PCR product is indicated for each primer pair. GAPDH was used as internal control.
To further examine the mechanism of action of the small molecule compounds of the present invention, the effect of compounds FN1-5 and FN1-8 on the Hedgehog (Hh) signaling pathway was examined in NSCLC cell lines H460 and A549. H460 and A549 cells were incubated with 30 μM of each compound (FN1-5 or FN1-8) for 2 days before isolation of total RNA that was used for semi-quantitative RT-PCR analysis. […] GAPDH served as a control.

## O=C(NCCCCCO)C1C(c2ccccc2)=NN(c2ccccc2)C1c1ccccc1 (stereo not shown) [FN1-5, N-(5-Hydroxypentyl)-1,3,5-triphenyl-4,5-dihydro-pyrazole-4-carboxyamide]
LnCAP (prostate cancer); 30 μM
  % of apoptotic cells: 7.7%
LnCAP (prostate cancer); 50 μM
  % of apoptotic cells: 16.3%
[1]
  SOCS3 promoter activity: inactive; also recorded: do not regulate SOCS3 promoter activity
[2]
  cell killing: dramatic cell killing
[3]
  cell killing effect: Dramatic cell killing effect
[4]
  expression of Hh pathway key components and direct target genes (Ptch1, Gli1): downregulated

## O=C(NCCc1ccc(O)cc1)C1C(c2ccccc2)=NN(c2ccccc2)C1c1ccccc1 (stereo not shown) [FN1-8, N-(2-(4-Hydroxyphenyl)ethyl)-1,3,5-triphenyl-4,5-dihydro-pyrazole-4-carboxyamide]
LnCAP (prostate cancer); 10 μM
  % of apoptotic cells: 6.9%
LnCAP (prostate cancer); 30 μM
  % of apoptotic cells: 11.0%
LnCAP (prostate cancer); 50 μM
  % of apoptotic cells: 41.5%
[1]
  SOCS3 promoter activity: inactive; also recorded: do not regulate SOCS3 promoter activity
[2]
  cell killing potency compared with FN1-5: more potent
  cell killing: dramatic cell killing
[3]
  cell killing effect: Dramatic cell killing effect
[3]; same dose
  cell killing potency compared with FN1-5: more potent than FN1-5
[4]
  inhibitory effect on Hh and Wnt pathways compared with FN1-5: more inhibitory effect
  expression of Hh pathway key components and direct target genes (Ptch1, Gli1): downregulated
